Data set [1] can be described thus: UGT inhibitor LDH cytotoxicity assay. It counts as cell-based. The conditions noted are these: human. The method, then: UGT Inhibitor Cytotoxicity Assay: Cytotoxicity of the UGT inhibitors was measured using a Pierce LDH Cytotoxicity Assay Kit (Thermo Fisher Scientific, Carlsbad, Calif., US). HEK cells were seeded at 5×10^4 per well in DMEM (Quality Biological, Gaithersburg, Md., US) with 10% Hyclone Cosmic Calf Serum (Thermo Fisher Scientific, Carlsbad, Calif., US), 200 μM of L-glutamine (Quality Biological, Gaithersburg, Md., US), and 50 μg/mL of gentamicin (Quality Biological, Gaithersburg, Md., US) at 37° C. in 5% CO2. The cells were then incubated with various concentrations of the UGT inhibitors overnight. Following this, 50 μL of media was transferred from each well to a new 96-well plate and then added 50 μL of reaction buffer. The mixture was incubated for 30 minutes and then added 50 μL of stop solution. Absorbance was measured at 490 nm and 680 nm. The following controls were included in the experiment: a spontaneous lactate dehydrogenase (LDH) activity control that was incubated with the vehicle only and a maximum LDH activity control that was incubated with nothing but later lysed prior to incubation with the reaction buffer. Absorbance was calculated for each well by subtracting the 680 nm absorbance value (background) from the 490 nm absorbance value. Percent cytotoxicity was calculated using the following equation (Formula 1): [formula]

A further data set has as its system B. malayi microfilariae. The experiment in a line: B. malayi microfilariae incubation with UGT inhibitors (microfilaricidal activity in vitro). It counts as cell-based, Brugia malayi. The conditions noted are these: 500 μM. The method, then:
B. malayi microfilariae incubation with UGT inhibitors: The above UGT inhibitors were evaluated for microfilaricidal activity in vitro. For each drug, experiments were performed in triplicate at a concentration of 2×10^4 Mf/mL in culture media. Viability was determined by quantifying the number of motile larvae from 100 randomly selected microfilariae per well. […] As a negative control, larvae were incubated in culture media alone. The UGT inhibitor experiments were repeated two times under similar conditions.

For data set [2] the following is noted: cited from earlier work.
Data set [3] deals with adult B. malayi female worms. The experiment in a line: Adult B. malayi worm incubation with UGT inhibitors, worm motility score (macrofilaricidal activity in vitro). As to conditions: for Lowest effective concentration (lowest concentration with significant effect on motility): adult worms in vitro. It counts as cell-based, Brugia malayi. The method, then: For the siRNA experiments, data was analyzed using one-way analysis of variance (ANOVA) or T-test by PRISM 7.0 (GraphPad Software, La Jolla, Calif., US). Following ANOVA, individual comparisons of mean values were performed using Tukey's multiple comparisons test. For the UGT inhibitor experiments, area under curve (AUC) analysis was performed followed by one-way ANOVA to determine significance. Statistical significance between the experimental and control groups was designated as follows: * for p values<0.05, ** for p values<0.01, and *** for p values<0.001.
(§1) Worm motility: Worms were visualized with a dissecting microscope by an observer blinded to treatment category. Motility of the adult female B. malayi worms was rated based on the following scale: 4=active movement, 3=modest reduction in movement, 2=severe reduction in movement, 1=twitching, and 0=no movement.
For probenecid, adult female worms were incubated in culture media with the drug for 7 days at concentrations of 5000 μM, 500 μM, 250 μM, and 100 μM. Worms were transferred into new media with corresponding drug concentrations every other day. As a negative control, worms were incubated in culture media alone. Worm motility was scored using the previously mentioned scale described in Example 3 for the course of the experiment.

The test system of data set [4] is adult B. malayi female worms. The experiment in a line: Adult female B. malayi incubation with UGT inhibitor in combination with albendazole, worm motility. The conditions noted are these: 8 days. It counts as cell-based, Brugia malayi. The method, then: as §1
For the probenecid samples, adult female worms were incubated in culture media with the drug for 8 days at concentration of 100 μM alone or in combination with 10 μM of albendazole. Worms were transferred into new media with corresponding drug concentrations every other day. As a negative control, worms were incubated in culture media alone. Worm motility was scored using a previously established scale as described in Example 3 for the course of the experiment.

Several values for one entry are separate records, joined by “and”; a condition that tells them apart may be missing. Equal entries are not always repeated. Where two headings read alike, the source gives them in different places.

For `CCCN(CCC)S(=O)(=O)c1ccc(C(=O)O)cc1` [probenecid, p-(di-n-propylsulphamyl)-benzoic acid], in data set [1], the cytotoxicity at 100 µM is -2.69%, the cytotoxicity at 250 µM is -0.67%, the cytotoxicity at 500 µM is -1.34% and the cytotoxicity at 5000 µM is -2.49%. In addition, the Microfilaricidal effect entry in the data set on B. malayi microfilariae is recorded as “no clear microfilaricidal effect”. In data set [2] (single 2 g oral dose), the “Adverse events in humans” value is recorded as “minimal adverse events”; the “Peak concentration in humans” value was 148.6 μg/mL and 520.7 μM. In addition, the “Macrofilaricidal activity in vitro” value in data set [3] (500 μM) is reported as “robust macrofilaricidal activity”. Also, in data set [3] (5000 μM, 7 days, media control AUC 24.18), the “Adult worm motility, area under the curve (AUC)” value is 8.1. Further, in data set [3] (adult worms), the “Macrofilaricidal activity in vitro” value is “exhibited macrofilaricidal activity in vitro”. Also, the “Lowest effective concentration (lowest concentration with significant effect on motility)” value in data set [3] was 500 µM.

As for `CCCSc1ccc2nc(NC(=O)OC)[nH]c2c1` [albendazole], the “Adult worm motility, area under the curve (AUC)” value in data set [4] (10 μM albendazole alone) is 29.63. Besides, the “Macrofilaricidal activity compared to media alone” value in data set [4] (10 μM alone) is given as “Limited macrofilaricidal activity”.

Turning to `O=C1C(CC[S+]([O-])c2ccccc2)C(=O)N(c2ccccc2)N1c1ccccc1` (stereo not shown) [sulfinpyrazone], in data set [1] (HEK cells, 40 μM, overnight, LDH), the cytotoxicity at 40 µM was -4.03%. Also, in data set [1] (HEK cells, 100 μM, overnight, LDH, read-out: % Cytotoxicity), the cytotoxicity at 100 µM was -4.46%. In addition, the cytotoxicity at 200 µM in data set [1] (HEK cells, 200 μM, overnight, LDH) is -5.35%. In data set [1] (HEK cells, 2000 μM, overnight, LDH), the cytotoxicity at 2000 µM was -4.14%. Moreover, the Cmax in data set [2] (400 mg dose, read-out: Maximum concentration (Cmax) in humans) was 79.9 µM. For the same compound, the “Lowest effective concentration (lowest concentration with significant effect on motility)” value in data set [3] turned out to be 200 µM.
